In this test the test system is triple-negative breast tumors. Kind of test: Cisplatin treatment of patients with triple-negative breast tumors, response by Miller-Payne score (GSE28330; Cisplatin-1 and Cisplatin-2 trials). It counts as in vivo, human. How it is done:
Two publically available data sets from clinical trial of Cisplatin treatment of patients with triple-negative breast tumors [GSE28330 GEO database][59] were processed and the number of LST_10 Mb was calculated for each tumor with good quality of measured profile. Genomic profiles were measured by two types of chip: Affymetrix Oncoscan 70K (Dataset 2) and Oncoscan 300K (Dataset 1). Information about mutational status of BRCA1/2 was available for some tumors. Response to treatment was measured by Miller-Payne score, where 4 and 5 were considered as “positive response”, while scores <4 were considered as “no response” [59] Case by case and summary results are presented in Table 2 and Tables 3-5 (statistical comparisons were performed by the Fisher exact test).
(i) TCGA cohort: 467 tumors with high quality SNP-array profile and available normal/tumor exome sequencing results in variant call format (vcf) from the TCGA Breast Invasive carcinoma dataset were used. (ii) In-house TNBC cohort: a series of 104 TNBC enriched in BRCAi germline mutated cased. (iii) the publically available data from Cisplatin-1 and Cisplatin-2 clinical trials cohorts: 54 TNBCs with suitable quality of Oncoscan (Affymetrix) array profile were obtained from public GEO repository GSE28330 (66).
HRD is linked to the response to platinum based chemotherapy. Birkbak et al. analyzed SNParray profiles from a series of 79 patients with TNBC, including 28 patients treated by cisplatin prior to surgery (Cisplatin-1 trial) and 51 patients treated with cisplatin in addition to bevacizumab (Cisplatin-2 trial) (59).

For `N.N.[Cl][Pt][Cl]` [Cisplatin, cisplatin], the “Non Responders (number of tumors)” value (BRCA1/2 inactivated tumors) is recorded as 8 and the “Non Responders (number of tumors)” value (NON BRCA1/2 or NA tumors) amounted to 27. Further, the “Responders (number of tumors)” value reads like this: (BRCA1/2 inactivated tumors) 9; (NON BRCA1/2 or NA tumors) 10. The “Miller Payne Response Score 4 (CR), number of tumors” value is reported as 7 (LST^hi tumors) and 1 (LST^lo tumors). Besides, the “Miller Payne Response Score 5 (pCR), number of tumors” value is 11 (LST^hi tumors) and 0 (LST^lo tumors). In addition, the “Non Responders (Miller-Payne 0-3), number of tumors” value by setting is: (LST_high tumors) 15; (LST_low tumors) 20. The “Responders (Miller-Payne 4-5), number of tumors” value by setting is: (LST_high tumors) 18; (LST_high tumors, listed as cisplatin) 18/33; (LST_low tumors) 1; (LST_low tumors, listed as cisplatin) 1/21.

These data come from patent US11149316B2, “Methods for detecting inactivation of the homologous recombination pathway (BRCA1/2) in human tumors” (INSTITUT CURIE, priority 2013, dated 2021).
